# Assay results from US12084473B2, “β-D-2′-deoxy-2′-α-fluoro-2′-β-C-substituted-2-modified-N6-substituted purine nucleotides for HCV treatment” (Atea Pharmaceuticals, Inc., priority 2015, dated 2024).
# Where two headings read alike, the source gives them in different places.
# Experiments:
# [1] = tested on: HCV genotype 1b luciferase reporter replicon; assay: microbe, parasite or virus in culture; assay type: cell-based; details: for EC95: Hepatitis C virus, Huh-7 luc/neo ET cells, 72 hours, luciferase, read-out: HCV Replicon EC50/EC95: EC95
# Experimental: (§1) The plates were cultured for 24 hours prior to the addition of compounds. Six serial one half log dilutions of the test articles (high test concentration of 100.0 μM or high test concentration of 1.0 μM) and human interferon-alpha2b (high test 10.0 U/ml) were prepared in cell culture medium and added to the cultured cells in triplicate wells for each dilution. Six wells in the test plates received medium alone as an untreated control. Following 72 hours of culture in the presence of compound, one of the plates was used for the determination of cytotoxicity by staining with XTT and the other for antiviral efficacy by determination of luciferase reporter activity. Cytotoxicity and efficacy data were collected and imported into a customized Excel workbook for determination of the TC50 and EC50 values. […] The y-axis is the percent of virus control and the x-axis is the concentration of drug in μM. […] The y-axis is the percent of virus control and the x-axis is the concentration of drug in M.
# [2] = Cytotoxicity by XTT staining in replicon cells; details: human
# Experimental: as §1
# [3] = tested on: HCV genotype 1b luciferase reporter replicon; assay: microbe, parasite or virus in culture; assay type: cell-based; details: Hepatitis C virus, HuH-7-Luc/Neo-ET, 72 h, read-out: HCV Replicon EC50/EC95: EC50
# Huh-7 luc/neo ET cells = assay: Cytotoxicity by XTT staining in replicon cells
# Experimental: as §1
# [4] = tested on: HCV Genotype 1a, NS5B Mutation L159F and S282T; assay: microbe, parasite or virus in culture; assay type: cell-based; details: genotype 1a, NS5B L159F and S282T
# Experimental: (§2) Various patient-derived HCV genotypes containing wild-type and resistance-associated variants were used to determine their relative replication sensitivity to test compounds. Replicon resistance test vectors (RTVs) containing the NS5B genomic regions were prepared using viral RNA isolated from plasma of HCV patients. Each NS5B region was amplified by reverse-transcription polymerase chain reaction and cloned into an HCV replicon RTV which was then transferred by electroporation into Huh-7 cells.
# [5] = tested on: HCV Genotype 1a, NS5B Mutation L159F; assay: microbe, parasite or virus in culture; assay type: cell-based; details: genotype 1a, NS5B L159F
# Experimental: as §2
# [6] = tested on: HCV Genotype 1a, NS5B Mutation none; assay: microbe, parasite or virus in culture; assay type: cell-based; details: genotype 1a, no NS5B mutation
# Experimental: as §2
# [7] = tested on: HCV Genotype 1b, NS5B Mutation C316N; assay: microbe, parasite or virus in culture; assay type: cell-based; details: genotype 1b, NS5B C316N
# Experimental: as §2
# [8] = tested on: HCV Genotype 1b, NS5B Mutation none; assay: microbe, parasite or virus in culture; assay type: cell-based; details: genotype 1b, no NS5B mutation
# Experimental: as §2
# [9] = tested on: HCV Genotype 2a, NS5B Mutation none; assay: microbe, parasite or virus in culture; assay type: cell-based; details: genotype 2a, no NS5B mutation
# Experimental: as §2
# [10] = tested on: HCV Genotype 2b, NS5B Mutation none; assay: microbe, parasite or virus in culture; assay type: cell-based; details: genotype 2b, no NS5B mutation
# Experimental: as §2
# [11] = tested on: HCV Genotype 3a-1, NS5B Mutation none; assay: microbe, parasite or virus in culture; assay type: cell-based; details: genotype 3a-1, no NS5B mutation
# Experimental: as §2
# [12] = tested on: HCV Genotype 3a-2, NS5B Mutation none; assay: microbe, parasite or virus in culture; assay type: cell-based; details: genotype 3a-2, no NS5B mutation
# Experimental: as §2
# [13] = tested on: HCV Genotype 4a, NS5B Mutation none; assay: microbe, parasite or virus in culture; assay type: cell-based; details: genotype 4a, no NS5B mutation
# Experimental: as §2
# [14] = tested on: HCV Genotype 4d, NS5B Mutation none; assay: microbe, parasite or virus in culture; assay type: cell-based; details: genotype 4d, no NS5B mutation
# Experimental: as §2
# HCV S282T replicon = assay: microbe, parasite or virus in culture; assay type: cell-based; details: NS5B Mutation S282T, transient assay, 96-hr
# Experimental: (§3) A transient transfection assay was performed to determine the sensitivity of the […] of HCV to test compounds. Huh-7 cells were electroporated in the presence of RNA transcribed from wild type or S282T HCV replicon plasmids from the T7 promoter. The transfected cells were seeded in to 96-well plates at 7.5×10^3 cells per well in Dulbecco's Modified Eagle's medium. After 24 hr of incubation, medium was removed and replaced with fresh medium containing no or various concentrations of test compounds. Following an additional 96-hr incubation, the anti-HCV activity was measured by luciferase endpoint with Britelite™ Plus luminescence reporter gene kit (Perkin Elmer, Shelton, CT). Duplicate plates were treated and incubated in parallel for assessment of cellular toxicity by staining with the tetrazolium dye XTT.
# HCV wild type replicon = assay: microbe, parasite or virus in culture; assay type: cell-based; details: NS5B Mutation None, transient assay, 96-hr
# Experimental: as §3
# [15] = tested on: micro-patterned human hepatocyte co-cultures; assay: Human Hepatocyte Co-Cultures (HepatoPac): cytotoxicity and hepatocyte health; assay type: cell-based
# Experimental: Cytotoxicity and hepatocyte health were assessed in triplicate by measuring ALT leakage, urea production, albumin secretion and cellular ATP contents in micro-patterned human hepatocyte co-cultures (HepatoPac®, Hepregen Corporation) prepared by seeding cryopreserved human hepatocytes (single donor) and 3T3 J2 mouse fibroblasts in microtiter plates according to procedures established by Hepregen. Culture media was replaced with fresh media containing TA, test article, (0, 1, 10 or 30 μM) every 2 or 3 days through day 16. […] Cellular ATP levels were measured on days 9 and 21. ATP signals in stromal-only control cultures (murine 3T3 fibroblasts) were subtracted from those of human HepatoPac co-cultures to obtain hepatocyte-specific effects. See, Table 4, 5 and 6 below.
compound,measurement,setting,value
"CC(C)OC(=O)[C@H](C)N[P@@](=O)(OCC1O[C@@H](n2cnc3c(N(C)C)nc(N)nc32)[C@](C)(F)[C@@H]1O)Oc1ccccc1 (stereo partly drawn) [Compound 26, isopropyl ((((R)-(2R,3R,4R,5R)-5-(2-amino-6-(dimethylamino)-9H-purin-9-yl)-4-fluoro-3-hydroxy-4-methyltetrahydrofuran-2-yl)methoxy)-phenoxy-phosphoryl)-L-alaninate]",EC95,[1],57 nM
same,CC50 at 72 h,[2],> 100000 nM
same,EC50,[3],35.1 nM
"CC(C)OC(=O)[C@H](C)N[P@@](=O)(OCC1O[C@@H](n2cnc3c(N(C)C4CC4)nc(N)nc32)[C@](C)(F)[C@@H]1O)Oc1ccccc1 (stereo partly drawn) [Compound 28, isopropyl ((((R)-(2R,3R,4R,5R)-5-(2-amino-6-(methylcyclopropanamino)-9H-purin-9-yl)-4-fluoro-3-hydroxy-4-methyltetrahydrofuran-2-yl)methoxy)-phenoxy-phosphoryl)-L-alaninate]",EC95,[1],76 nM
same,CC50 at 72 h,[2],> 100000 nM
same,EC50,[3],14 nM
C#C[C@@]1(F)[C@H](O)[C@@H](CO)O[C@H]1n1cnc2c(N(C)C)nc(N)nc21 [Compound 41],EC95,[1],25100 nM
same,CC50 at 72 h,[2],21800 nM
same,EC50,[3],508 nM
C#C[C@@]1(F)[C@H](O)[C@@H](CO)O[C@H]1n1cnc2c(NC)nc(N)nc21 [Compound 42],EC95,[1],20400 nM
same,CC50 at 72 h,[2],> 100000 nM
same,EC50,[3],4180 nM
C#C[C@@]1(F)[C@H](O)[C@@H](CO)O[C@H]1n1cnc2c(N(C)C3CC3)nc(N)nc21 [Compound 43],EC95,[1],24700 nM
same,CC50 at 72 h,[2],21600 nM
same,EC50,[3],6430 nM
"C#C[C@@]1(F)[C@H](O)C(COP(=O)(N[C@@H](C)C(=O)OC(C)C)Oc2ccccc2)O[C@H]1n1cnc2c(N(C)C)nc(N)nc21 (stereo partly drawn) [Compound 45, isopropyl ((((R,S)-(2R,3R,4R,5R)-5-(2-amino-6-dimethylamino-9H-purin-9-yl)-4-fluoro-3-hydroxy-4-ethynyltetrahydrofuran-2-yl)methoxy)-phenoxy-phosphoryl)-L-alaninate]",EC95,[1],876 nM
same,CC50 at 72 h,[2],680 nM
same,EC50,[3],160 nM
"C#C[C@@]1(F)[C@H](O)C(COP(=O)(N[C@@H](C)C(=O)OC(C)C)Oc2ccccc2)O[C@H]1n1cnc2c(NC)nc(N)nc21 (stereo partly drawn) [Compound 46, isopropyl ((((R,S)-(2R,3R,4R,5R)-5-(2-amino-6-methylamino-9H-purin-9-yl)-4-fluoro-3-hydroxy-4-ethynyltetrahydrofuran-2-yl)methoxy)-phenoxy-phosphoryl)-L-alaninate]",EC95,[1],961 nM
same,CC50 at 72 h,[2],> 100000 nM
same,EC50,[3],224 nM
"C#C[C@@]1(F)[C@H](O)C(COP(=O)(N[C@@H](C)C(=O)OC(C)C)Oc2ccccc2)O[C@H]1n1cnc2c(N(C)C3CC3)nc(N)nc21 (stereo partly drawn) [Compound 47, isopropyl ((((R,S)-(2R,3R,4R,5R)-5-(2-amino-6-(N-methylcyclopropylamino)-9H-purin-9-yl)-4-fluoro-3-hydroxy-4-ethynyltetrahydrofuran-2-yl)methoxy)-phenoxy-phosphoryl)-L-alaninate]",EC95,[1],1720 nM
same,CC50 at 72 h,[2],1680 nM
same,EC50,[3],338 nM
sofosbuvir [reference compound],EC50,[1]; read-out: EC50 in a replicon assay,53 nM
same,TC50,Huh-7 luc/neo ET cells,greater than one hundred
same,IC95 Value,[4],16950.9 nM
same,IC50,[4]; read-out: IC50 Value,1620 nM
same,IC95 Value,[5],1067.5 nM
same,IC50,[5]; read-out: IC50 Value,115 nM
same,IC95 Value,[6],507.7 nM
same,IC50,[6]; read-out: IC50 Value,62.7 nM
same,IC95 Value,[7],472.8 nM
same,IC50,[7]; read-out: IC50 Value,73.9 nM
same,Fold Change in IC50 from Sofosbuvir,[8],1.0
same,IC95 Value,[8],642.2 nM
same,IC50,[8]; read-out: IC50 Value,86 nM
same,IC95 Value,[9],195.1 nM
same,IC50,[9]; read-out: IC50 Value,22.5 nM
same,IC95 Value,[10],295.3 nM
same,IC50,[10]; read-out: IC50 Value,44.8 nM
same,IC95 Value,[11],689.8 nM
same,IC50,[11]; read-out: IC50 Value,126 nM
same,IC95 Value,[12],808.1 nM
same,IC50,[12]; read-out: IC50 Value,124 nM
same,IC95 Value,[13],681.4 nM
same,IC50,[13]; read-out: IC50 Value,74.9 nM
same,IC95 Value,[14],1019.7 nM
same,IC50,[14]; read-out: IC50 Value,93.7 nM
same,IC95 Value,HCV S282T replicon,>1000 nM
same,IC50,HCV S282T replicon; read-out: IC50 Value,278 nM
same,IC95 Value,HCV wild type replicon,218 nM
same,IC50,HCV wild type replicon; read-out: IC50 Value,36.4 nM
same,IC50,"[15]; Day 9, read-out: Effect on Cellular ATP Concentrations, 50% Inhibitory Concentration (IC50)",8600 nM
same,IC50,"[15]; Day 21, read-out: Effect on Cellular ATP Concentrations, 50% Inhibitory Concentration (IC50)",2300 nM
same,IC50,"[15]; Table 5, Day 2, read-out: Effect on Albumin Secretion, 50% Inhibitory Concentration (IC50)",> 30000 nM
same,IC50,"[15]; Table 5, Day 5, read-out: Effect on Albumin Secretion, 50% Inhibitory Concentration (IC50)",19500 nM
same,IC50,"[15]; Table 5, Day 7, read-out: Effect on Albumin Secretion, 50% Inhibitory Concentration (IC50)",10900 nM
same,IC50,"[15]; Table 5, Day 9, read-out: Effect on Albumin Secretion, 50% Inhibitory Concentration (IC50)",9300 nM
same,IC50,"[15]; Table 6, Day 2, read-out: Effect on Albumin Secretion, 50% Inhibitory Concentration (IC50)",> 30000 nM
same,IC50,"[15]; Table 6, Day 5, read-out: Effect on Albumin Secretion, 50% Inhibitory Concentration (IC50)",> 30000 nM
same,IC50,"[15]; Table 6, Day 7, read-out: Effect on Albumin Secretion, 50% Inhibitory Concentration (IC50)",> 30000 nM
same,IC50,"[15]; Table 6, Day 9, read-out: Effect on Albumin Secretion, 50% Inhibitory Concentration (IC50)",12100 nM
same,IC50,"[15]; Table 6, Day 12, read-out: Effect on Albumin Secretion, 50% Inhibitory Concentration (IC50)",6800 nM
same,IC50,"[15]; Table 6, Day 16, read-out: Effect on Albumin Secretion, 50% Inhibitory Concentration (IC50)",2700 nM
same,IC50,"[15]; Table 6, Day 21, read-out: Effect on Albumin Secretion, 50% Inhibitory Concentration (IC50)",2300 nM
same,cytotoxicity to human co-cultured hepatocytes (in words),[15]; text b588,more cytotoxicity than AT-511
